From article PMC8308830, “Single-Agent and Fixed-Dose Combination HIV-1 Protease Inhibitor Drugs in Fission Yeast (Schizosaccharomyces pombe)” (Pathogens, 2021)
“Also recorded” adds a separate entry of the source.

Experiments:
HIV = conditions: human cells, antiviral activity; per-drug references in Table 2; read-out: EC50 in Human Cell; cited from earlier work
HIV-1 PR [1] = biological target: T1, HIV-1 PR (Human immunodeficiency virus type 1 group M subtype B, UniProt P12497); assay: cell-based; conditions: for EC50: PR-on RE294 cells, growth (OD650) at 72 h post-gene induction relative to PR-off cells; for decrease of EC50 of formulated drug in comparison with pure compound: fission yeast RE294, formulated drug pill vs pure compound
Description: The goal of this experiment was to determine the potency of each PI drug in fission yeast by the determination of EC50. […] Briefly, both HIV-1 PR-suppressing (PR-off) and PR-producing (PR-on) RE294 cells were prepared as described above. The PR-producing cells were added with a PI drug in the final concentration as indicated. Final cellular growth was measured at 72 h post-gene induction.
(A) Pure compound of PI drugs. (B) Formulated PI drug pills. HIV-1 PR gene expression was induced in RE294 cells, as described in Figure 2. […] Cellular growth was measured at 72 h post-gene induction by optical density of 650 nm using a spectrophotometer. EC50 curves were generated by using Prism 8 software showing averages with standard error bars. The measurements were repeated with three different experiments.
Briefly, both HIV-1 PR-suppressing (PR-off) or PR-producing (PR-on) RE294 cells were prepared as described above as control and for testing. The PR-producing cells were added with a PI drug in the final concentration as shown. Final cellular growth was measured at 72 h post-gene induction by optical density of 650 nm using a spectrophotometer.

HIV-1 PR [2] = biological target: T1, HIV-1 PR; conditions: 150 μM drug; G31 cells; 20 h post-gene induction
HIV-1 PR [3] = biological target: T1, HIV-1 PR; assay: Fission yeast colony formation assay, wild-type HIV-1 PR (RE294 strain); type: cell-based; design: HIV-1 PR is a dimeric aspartyl protease that consists of two identical subunits with 99 amino acids; expressed in transfected cells; host or cells: Schizosaccharomyces pombe strain RE294; conditions: 150 μM drug; PR-on RE294 cells; 4–5 days at 30 °C; pure chemical forms and formulated drug pills
Description: The effect of the above-mentioned FDA-approved PI drugs on fission yeast colony formation was tested in the presence and absence of HIV-1 PR. Specifically, a fission yeast RE294 strain, which carries a single and integrated copy of HIV-1 PR gene in the yeast chromosome, was used in this experiment. One thousand active growing and log-phase RE294 cells were evenly spread and cultured on the six-well agar wells containing the minimal and selective PMG medium in presence of 20 µM of thiamine (PR-off) or absence of thiamine (PR-on) with incubation at 30 °C for 4–5 days. […] To test the effect of a PI drug on the colony formation, 150 μM of each drug was added to the respective agar well in the presence of HIV-1 PR. Since all those drugs were dissolved in dimethyl sulfoxide (DMSO), to test the potential DMSO effect on the yeast colony formation, DMSO in the final concentration of 1% was added to the PR-on well as a mock control (Figure 2A). […]
A modified fission yeast colony-formation assay was used to investigate the effect of the PR gene expression on fission yeast cell proliferation from previously described protocol. […] The inhibitory effect of each FDA PI drug on yeast colony formation was evaluated 4–5 days after plating by comparing the growth of the colonies of the drug-treated wells to that of the mock DMSO controls.

HIV-1 PR [4] = biological target: T1, HIV-1 PR; type: cell-based; design: HIV-1 PR is a dimeric aspartyl protease that consists of two identical subunits with 99 amino acids; expressed in transfected cells; host or cells: Schizosaccharomyces pombe strain RE294; conditions: 150 μM drug; PR-on RE294 cells; OD650 over 72 h; formulated single-agent and combination drugs
[5] = EC50 in Fission Yeast /Pure Compound, pure compound
[6] = EC50 in Fission Yeast /Drug Formulation, compounds in drug pill forms

SMILES | EC50 (HIV) | EC50 (HIV-1 PR [1]; [5]) | decrease of EC50 of formulated drug in comparison with pure compound (HIV-1 PR [1]) | further results
CC(C)CN(C[C@@H](O)[C@H](Cc1ccccc1)NC(=O)O[C@H]1CCOC1)S(=O)(=O)c1ccc(N)cc1 [APV, Amprenavir] | 15 to 60 nM | 55400 ± 3180 nM |  | 
COC(=O)N[C@H](C(=O)N[C@@H](Cc1ccccc1)[C@@H](O)CN(Cc1ccc(-c2ccccn2)cc1)NC(=O)[C@@H](NC(=O)OC)C(C)(C)C)C(C)(C)C [ATV, Atazanavir] | 2 to 5 nM | 21080 ± 70 nM | 22.5% | EC50 (HIV-1 PR [1]; [6]): 16300 ± 950 nM
CC(C)CN(C[C@@H](O)[C@H](Cc1ccccc1)NC(=O)O[C@H]1CO[C@H]2OCC[C@H]21)S(=O)(=O)c1ccc(N)cc1 [DRV, Darunavir] | 1 to 10 nM |  | 28.5% | 
CC(C)CN(C[C@@H](OP(=O)(O)O)[C@H](Cc1ccccc1)NC(=O)O[C@H]1CCOC1)S(=O)(=O)c1ccc(N)cc1 [FPV, Fosamprenavir] |  |  |  | inhibition of HIV-1 PR proteolytic cleavage of GFP-MA↓CA-Vpr (Vpr pattern vs GFP pattern) (HIV-1 PR [2]): no suppression; suppression of the inhibitory effect of HIV-1 PR on colony formation (HIV-1 PR [3]): did not suppress; suppression of HIV-1 PR-induced growth arrest, formulated drug pills (HIV-1 PR [4]): did not suppress; EC50 (HIV-1 PR [1]; [6]): > 150000 nM; inhibitory activity against the HIV-1 PR in fission yeast (HIV-1 PR [1]; wild-type PR, fission yeast): no inhibitory activity; also recorded: did not show any inhibitory effect
CC(C)(C)NC(=O)[C@@H]1CN(Cc2cccnc2)CCN1C[C@@H](O)C[C@@H](Cc1ccccc1)C(=O)N[C@H]1c2ccccc2C[C@H]1O [IDV, Indinavir] | 5 to 30 nM |  |  | 
Cc1cccc(C)c1OCC(=O)N[C@@H](Cc1ccccc1)[C@@H](O)C[C@H](Cc1ccccc1)NC(=O)[C@H](C(C)C)N1CCCNC1=O [LPV, Lopinavir] | 4 to 11 nM |  |  | 
Cc1c(O)cccc1C(=O)N[C@@H](CSc1ccccc1)[C@H](O)CN1C[C@H]2CCCC[C@H]2C[C@H]1C(=O)NC(C)(C)C [NFV, Nelfinavir] | 3 to 40 nM | 9700 ± 340 nM |  | 
CC(C)c1nc(CN(C)C(=O)N[C@H](C(=O)N[C@@H](Cc2ccccc2)C[C@H](O)[C@H](Cc2ccccc2)NC(=O)OCc2cncs2)C(C)C)cs1 [RTV, Ritonavir] | 40 to 100 nM |  | 38.9% | 
CC(C)(C)NC(=O)[C@@H]1C[C@@H]2CCCC[C@@H]2CN1C[C@@H](O)[C@H](Cc1ccccc1)NC(=O)[C@H](CC(N)=O)NC(=O)c1ccc2ccccc2n1 [SQV, Saquinavir] | 5 to 25 nM |  |  | 
CCC[C@@]1(CCc2ccccc2)CC(O)=C([C@H](CC)c2cccc(NS(=O)(=O)c3ccc(C(F)(F)F)cn3)c2)C(=O)O1 [TPV, Tipranavir] | 30 to 70 nM | 7060 ± 320 nM |  | 
